Laboratory results as given in US8415469B2, “Compounds and methods for kinase modulation, and indications therefor” (Plexxikon Inc., priority 2005, dated 2013).

Key:
Type in all cases: biochemical
Fms = target: T1, Fms (Homo sapiens, UniProt P07333); assay: AlphaScreen kinase assay, Fms; settings: read-out: IC50, activity toward kinase Fms
T1 construct: purchased Upstate Biotechnology

FGFR1 = target: T2, FGFR1 (Homo sapiens, UniProt P11362, C488A/C584S); assay: AlphaScreen kinase assay, FGFR1; settings: read-out: IC50, activity toward kinase FGFR
T2 construct: P1351.pET N6 BI-PTP FGFR A458-E765-X C488A, C584S; made in house; host or cells: E. coli (PTP1B co-expressed)
T2 sequence (P11362 458-765 C488A/C584S): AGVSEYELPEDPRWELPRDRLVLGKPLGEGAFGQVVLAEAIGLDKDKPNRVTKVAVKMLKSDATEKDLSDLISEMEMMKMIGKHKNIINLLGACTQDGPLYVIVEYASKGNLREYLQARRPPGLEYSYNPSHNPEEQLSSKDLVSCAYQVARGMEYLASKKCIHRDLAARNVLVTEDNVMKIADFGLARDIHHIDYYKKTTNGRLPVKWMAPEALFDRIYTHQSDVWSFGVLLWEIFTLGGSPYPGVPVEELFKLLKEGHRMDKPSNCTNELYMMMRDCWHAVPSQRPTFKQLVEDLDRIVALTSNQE

B-Raf = target: T3, B-Raf (Homo sapiens, UniProt P15056); assay: AlphaScreen kinase assay, B-Raf; settings: read-out: IC50, activity toward kinase B-Raf
T3 construct: purchased Upstate Biotechnology
T3 sequence (P15056 whole entry): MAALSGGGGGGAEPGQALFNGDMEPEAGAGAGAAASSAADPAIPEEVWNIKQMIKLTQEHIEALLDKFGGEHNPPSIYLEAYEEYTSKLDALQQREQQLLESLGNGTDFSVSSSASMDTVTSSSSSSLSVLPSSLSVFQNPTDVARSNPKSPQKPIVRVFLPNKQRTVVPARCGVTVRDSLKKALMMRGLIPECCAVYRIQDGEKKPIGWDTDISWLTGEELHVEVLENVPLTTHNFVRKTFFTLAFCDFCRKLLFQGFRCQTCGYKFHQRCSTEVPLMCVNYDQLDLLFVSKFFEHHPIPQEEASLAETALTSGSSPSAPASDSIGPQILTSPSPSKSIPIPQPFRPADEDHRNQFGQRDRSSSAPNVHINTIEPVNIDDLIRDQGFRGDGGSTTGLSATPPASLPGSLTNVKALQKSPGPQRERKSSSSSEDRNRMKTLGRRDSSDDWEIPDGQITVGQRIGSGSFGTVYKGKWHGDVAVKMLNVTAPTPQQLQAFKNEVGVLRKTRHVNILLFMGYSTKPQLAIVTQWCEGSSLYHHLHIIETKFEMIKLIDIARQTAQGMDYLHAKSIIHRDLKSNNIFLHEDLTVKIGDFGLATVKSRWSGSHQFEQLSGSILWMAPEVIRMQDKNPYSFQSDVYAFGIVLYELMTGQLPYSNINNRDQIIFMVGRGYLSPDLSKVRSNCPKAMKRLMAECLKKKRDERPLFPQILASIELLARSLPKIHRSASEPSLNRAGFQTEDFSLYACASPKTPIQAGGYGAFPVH

Flt1 = target: T4, Flt1 (Homo sapiens, UniProt P17948); assay: AlphaScreen kinase assay, Flt1; settings: read-out: IC50, activity toward kinase Flt1
T4 construct: P1826.pETN6 BI-PTP FLT1 M799-D1165-X WT; His6 (N); made in house; host or cells: E. coli (PTP1B co-expressed)
T4 sequence (P17948 with tags, fused parts or gaps): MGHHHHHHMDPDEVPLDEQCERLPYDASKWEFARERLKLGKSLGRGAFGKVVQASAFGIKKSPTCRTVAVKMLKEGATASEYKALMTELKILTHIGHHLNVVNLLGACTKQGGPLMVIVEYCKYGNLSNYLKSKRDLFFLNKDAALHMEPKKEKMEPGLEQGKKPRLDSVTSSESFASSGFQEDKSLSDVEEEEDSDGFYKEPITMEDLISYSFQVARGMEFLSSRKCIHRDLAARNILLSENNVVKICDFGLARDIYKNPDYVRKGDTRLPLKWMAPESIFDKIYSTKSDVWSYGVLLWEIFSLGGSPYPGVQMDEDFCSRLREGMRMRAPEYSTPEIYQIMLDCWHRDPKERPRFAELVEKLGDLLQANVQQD
Description: AlphaScreen assay was used to screen additional kinases. The assay is similarly dependent on the phosphorylation of a peptide substrate. In this assay, an antibody that recognizes phosphorylated substrate is bound to an acceptor bead. The peptide substrate is attached to biotin, which binds to a donor head that contains streptavidin. Thus phosphorylated substrate is bound by antibody and streptavidin, bringing the donor and acceptor heads into close proximity when kinase is not inhibited. The donor produces singlet oxygen which results in emission from the acceptor when they are in close proximity. Conversely, when kinase is inhibited, the donor and acceptor beads are not associated and the emission from the acceptor is reduced.
AlphaScreen assays were done using compounds dissolved in DMSO to a concentration of 20 mM. The compounds were diluted accordingly to the desired final concentrations in each sample well, using 1:3 serial dilution for a total of 8 concentration points. Plates were prepared such that each kinase reaction is 20 μl in 1× kinase buffer, 5% DMSO and 10 μM ATP. After incubation of the kinase reaction for 1 hour at room temperature, 5 μl of donor beads in stop buffer (50 mM EDTA in 1× kinase buffer) was added, the sample was mixed and incubated for 20 minutes at room temperature before adding 5 μl of acceptor beads in stop buffer. The samples were incubated for 60 minutes at room temperature and the signal per well was read on AlphaQuest reader.

B-Raf V600E = target: T5, B-Raf V600E (Homo sapiens, UniProt P15056, V600E); assay: AlphaScreen kinase assay, B-Raf V600E; settings: read-out: IC50, activity toward kinase B-Raf V600E
T5 construct: P4254. pFastBacBD-CDC37 BRAF D437-K722-X, V600E; His6 with pFastBac HT leader (TEV site) (N); made in house; host or cells: Sf9 (baculovirus; chaperone CDC37 co-expressed)
T5 sequence (P15056 with tags, fused parts or gaps V600E): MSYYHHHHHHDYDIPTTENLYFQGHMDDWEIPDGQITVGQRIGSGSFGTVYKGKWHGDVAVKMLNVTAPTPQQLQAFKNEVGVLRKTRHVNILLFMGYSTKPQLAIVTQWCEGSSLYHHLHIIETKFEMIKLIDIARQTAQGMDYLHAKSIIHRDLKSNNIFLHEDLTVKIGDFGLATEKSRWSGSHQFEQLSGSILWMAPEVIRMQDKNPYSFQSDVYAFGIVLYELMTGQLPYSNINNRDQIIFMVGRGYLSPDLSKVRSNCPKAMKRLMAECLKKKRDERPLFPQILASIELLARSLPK

Kit = target: T6, Kit (Homo sapiens, UniProt P10721); assay: AlphaScreen kinase assay, Kit; settings: read-out: IC50, activity toward kinase Kit
T6 construct: P1332.N6 BI PTP KIT M552-K948-X COD; His6 (N); made in house; host or cells: E. coli (PTP1B co-expressed)
T6 sequence (P10721 with tags, fused parts or gaps): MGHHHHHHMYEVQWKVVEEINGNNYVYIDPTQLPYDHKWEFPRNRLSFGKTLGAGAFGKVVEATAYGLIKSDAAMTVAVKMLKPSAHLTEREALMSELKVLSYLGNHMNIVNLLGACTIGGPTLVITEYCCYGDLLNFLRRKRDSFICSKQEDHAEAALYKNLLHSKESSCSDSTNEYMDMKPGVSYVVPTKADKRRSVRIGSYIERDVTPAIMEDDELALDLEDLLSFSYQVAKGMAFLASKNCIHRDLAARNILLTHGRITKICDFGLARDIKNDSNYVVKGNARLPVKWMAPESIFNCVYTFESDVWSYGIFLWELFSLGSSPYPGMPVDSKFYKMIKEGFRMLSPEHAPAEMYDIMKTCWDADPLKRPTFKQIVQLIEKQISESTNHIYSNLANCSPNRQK

c-Raf-1 = target: T7, c-Raf-1 (Homo sapiens, UniProt P04049); assay: AlphaScreen kinase assay, c-Raf-1; settings: read-out: IC50, activity toward kinase c-Raf-1
T7 construct: purchased Upstate Biotechnology
T7 sequence (P04049 whole entry): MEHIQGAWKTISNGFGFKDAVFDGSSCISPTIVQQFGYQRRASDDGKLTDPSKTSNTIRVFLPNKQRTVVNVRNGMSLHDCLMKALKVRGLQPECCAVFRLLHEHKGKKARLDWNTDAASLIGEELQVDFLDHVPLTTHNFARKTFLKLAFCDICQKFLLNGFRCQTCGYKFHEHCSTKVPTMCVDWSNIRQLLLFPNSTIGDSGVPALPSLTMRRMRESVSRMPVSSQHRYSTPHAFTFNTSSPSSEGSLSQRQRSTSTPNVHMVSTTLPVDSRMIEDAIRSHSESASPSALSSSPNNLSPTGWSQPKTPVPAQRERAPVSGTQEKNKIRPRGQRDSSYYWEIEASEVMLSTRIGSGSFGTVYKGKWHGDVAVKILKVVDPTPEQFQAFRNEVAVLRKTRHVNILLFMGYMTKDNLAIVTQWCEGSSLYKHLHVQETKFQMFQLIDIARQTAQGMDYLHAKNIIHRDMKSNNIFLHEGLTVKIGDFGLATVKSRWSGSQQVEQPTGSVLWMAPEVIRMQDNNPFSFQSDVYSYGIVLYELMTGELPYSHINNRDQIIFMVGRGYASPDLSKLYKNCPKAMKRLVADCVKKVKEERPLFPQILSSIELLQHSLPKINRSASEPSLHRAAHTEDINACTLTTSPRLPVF

Ret = target: T8, Ret (Homo sapiens, UniProt P07949); assay: AlphaScreen kinase assay, Ret; settings: read-out: IC50, activity toward kinase Ret
T8 construct: P1378.pET-SF BI-PTP RET H661-R1012 HIS; made in house
T8 sequence (P07949 with tags, fused parts or gaps): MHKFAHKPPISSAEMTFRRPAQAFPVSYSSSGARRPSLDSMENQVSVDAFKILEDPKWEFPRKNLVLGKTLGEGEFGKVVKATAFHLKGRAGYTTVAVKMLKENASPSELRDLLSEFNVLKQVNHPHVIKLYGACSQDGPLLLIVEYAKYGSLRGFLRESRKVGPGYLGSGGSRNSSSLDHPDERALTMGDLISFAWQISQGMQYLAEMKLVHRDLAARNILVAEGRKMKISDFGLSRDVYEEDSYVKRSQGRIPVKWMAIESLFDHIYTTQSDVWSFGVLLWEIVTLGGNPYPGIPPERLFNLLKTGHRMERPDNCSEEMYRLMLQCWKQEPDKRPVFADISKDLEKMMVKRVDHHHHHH

Measured: IC50

T1 sequence (P07333 20-972): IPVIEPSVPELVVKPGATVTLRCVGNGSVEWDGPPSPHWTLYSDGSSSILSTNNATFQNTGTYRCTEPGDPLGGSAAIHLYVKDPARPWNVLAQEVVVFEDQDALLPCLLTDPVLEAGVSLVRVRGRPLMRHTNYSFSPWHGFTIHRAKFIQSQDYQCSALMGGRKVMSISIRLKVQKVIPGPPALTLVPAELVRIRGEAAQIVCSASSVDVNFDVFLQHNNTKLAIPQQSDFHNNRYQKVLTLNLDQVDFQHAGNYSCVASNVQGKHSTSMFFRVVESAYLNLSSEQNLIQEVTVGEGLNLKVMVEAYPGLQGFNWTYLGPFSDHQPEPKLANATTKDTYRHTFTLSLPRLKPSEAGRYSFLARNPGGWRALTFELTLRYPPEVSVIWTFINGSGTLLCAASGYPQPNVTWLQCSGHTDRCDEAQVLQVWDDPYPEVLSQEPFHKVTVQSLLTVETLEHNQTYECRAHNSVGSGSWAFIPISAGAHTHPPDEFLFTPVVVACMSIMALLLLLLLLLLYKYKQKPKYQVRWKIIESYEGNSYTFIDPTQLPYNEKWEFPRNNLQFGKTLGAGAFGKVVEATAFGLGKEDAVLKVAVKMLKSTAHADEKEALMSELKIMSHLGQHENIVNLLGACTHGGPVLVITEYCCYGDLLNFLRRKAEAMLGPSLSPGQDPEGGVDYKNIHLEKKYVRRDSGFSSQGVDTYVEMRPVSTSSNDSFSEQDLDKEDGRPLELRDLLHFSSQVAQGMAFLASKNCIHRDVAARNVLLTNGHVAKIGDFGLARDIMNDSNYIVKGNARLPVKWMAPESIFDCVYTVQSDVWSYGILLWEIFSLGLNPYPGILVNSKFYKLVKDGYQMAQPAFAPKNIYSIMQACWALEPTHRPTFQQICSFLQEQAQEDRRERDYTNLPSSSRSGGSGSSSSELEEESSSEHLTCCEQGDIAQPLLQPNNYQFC

O=C(c1c(F)ccc(OC(F)F)c1F)c1c[nH]c2ncc(-c3cccnc3)cc12 [Compound P-1528, (3-Difluoromethoxy-2,6-difluoro-phenyl)-(5-pyridin-3-yl-1H-pyrrolo[2,3-b]pyridin-3-yl)-methanone]
not listed: c-Raf-1 | Ret
≤ 10 µM: all other assays above

CCCC(=O)Nc1ccc(F)c(C(=O)c2c[nH]c3ncc(Br)cc23)c1F [Compound P-1283]
≤ 10 µM: FGFR1 | B-Raf V600E | c-Raf-1

CCCS(=O)(=O)Nc1ccc(F)c(C(=O)c2c[nH]c3ncc(C(=O)O)cc23)c1F [Compound P-1559, 3-[2,6-difluoro-3-(propane-1-sulfonylamino)-benzoyl]-1H-pyrrolo[2,3-b]pyridine-5-carboxylic acid]
≤ 10 µM: Fms | B-Raf | Flt1 | B-Raf V600E | Kit

CC1CCN(c2cnc3[nH]ccc3c2)CC1 [Compound P-1122]
≤ 10 µM: c-Raf-1

O=[N+]([O-])c1cccc(Nc2ccnc3[nH]ccc23)c1 [Compound P-0973]
≤ 10 µM: B-Raf | c-Raf-1

CCC(C(=O)c1c[nH]c2ncccc12)S(=O)(=O)Nc1cc(F)cc(F)c1 (centres unmarked) [Compound P-1070]
≤ 10 µM: B-Raf V600E | c-Raf-1

CCCNC(=O)c1ccc(OC)c(C(=O)c2c[nH]c3ncc(-c4cccnc4)cc23)c1F [Compound P-1077]
≤ 10 µM: c-Raf-1

Clc1cnc2[nH]ccc2c1 [Compound P-1063]
≤ 10 µM: B-Raf V600E | c-Raf-1

CCCNS(=O)(=O)c1ccc(OC)c(C(=O)c2c[nH]c3ncc(-c4cccnc4)cc23)c1F [Compound P-1078]
≤ 10 µM: FGFR1 | c-Raf-1

c1cc2cc(N3CCOCC3)cnc2[nH]1 [Compound P-1118]
≤ 10 µM: c-Raf-1

COc1cccc(Cc2c[nH]c3ncc(Br)cc23)c1F [Compound P-0535, 5-Bromo-3-(2-fluoro-3-methoxy-benzyl)-1H-pyrrolo[2,3-b]pyridine]
≤ 10 µM: Fms | FGFR1 | B-Raf V600E | c-Raf-1 | Kit

CCCS(=O)(=O)Nc1ccc(F)c(C(O)c2c[nH]c3ncc(N4CCOCC4)cc23)c1F (centres unmarked) [Compound P-1071]
≤ 10 µM: B-Raf V600E | c-Raf-1

O=C(c1c(F)ccc(NS(=O)(=O)c2ccc(Cl)c(Cl)c2)c1F)c1c[nH]c2ncccc12 [Compound P-1015, 3,4-Dichloro-N-[2,4-difluoro-3-(1H-pyrrolo[2,3-b]pyridine-3-carbonyl)-phenyl]-benzenesulfonamide]
≤ 10 µM: FGFR1 | B-Raf V600E | c-Raf-1

CCOc1cccc(Nc2ccnc3[nH]ccc23)c1 [Compound P-1076]
≤ 10 µM: B-Raf | c-Raf-1

COC(c1ccc(NCc2ccc(Cl)c(C(F)(F)F)c2)nc1)c1c[nH]c2ncccc12 (centres unmarked) [Compound P-1064]
≤ 10 µM: B-Raf V600E | c-Raf-1

CCCS(=O)(=O)Nc1ccc(F)c(C(=O)c2c[nH]c3ncc(-c4cccc(F)c4)cc23)c1F [Compound P-1259, Propane-1-sulfonic acid {2,4-difluoro-3-[5-(3-fluoro-phenyl)-1H-pyrrolo[2,3-b]pyridine-3-carbonyl]-phenyl}-amide]
not listed: c-Raf-1 | Ret
≤ 10 µM: all other assays above

Cc1cc(C(=O)c2c[nH]c3ncc(-c4ccc(C(N)=O)cc4)cc23)nn1C [Compound P-0749]
≤ 10 µM: FGFR1 | Ret | Flt1 | Kit

CC(=O)Nc1cccc(Nc2ccnc3[nH]ccc23)c1 [Compound P-0941]
≤ 10 µM: B-Raf | c-Raf-1

Cc1c(NS(=O)(=O)N(C)C)cccc1C(=O)c1c[nH]c2ncc(Br)cc12 [Compound P-1609]
≤ 10 µM: Fms | FGFR1 | B-Raf | Flt1 | B-Raf V600E

Fc1cnc2[nH]ccc2c1 [Compound P-1061]
≤ 10 µM: B-Raf V600E | c-Raf-1

O=C(c1c(F)ccc(NS(=O)(=O)c2cccc(C(F)(F)F)c2)c1F)c1c[nH]c2ncc(Cl)cc12 [Compound P-1599, N-[3-(5-Chloro-1H-pyrrolo[2,3-b]pyridine-3-carbonyl)-2,4-difluoro-phenyl]-3-trifluoromethyl-benzenesulfonamide]
≤ 10 µM: Fms | B-Raf | Flt1 | B-Raf V600E | Kit

CC(C)Oc1cccc(Nc2ccnc3[nH]ccc23)c1 [Compound P-1079]
≤ 10 µM: c-Raf-1

Fc1ccc(Nc2ccnc3[nH]ccc23)cc1F [Compound P-0987]
≤ 10 µM: B-Raf | c-Raf-1

O=C(NCCN1CCOCC1)Nc1ccc(F)c(C(=O)c2c[nH]c3ncc(Cl)cc23)c1F [Compound P-1580, 1-[3-(5-Chloro-1H-pyrrolo[2,3-b]pyridine-3-carbonyl)-2,4-difluoro-phenyl]-3-(2-morpholin-4-yl-ethyl)-urea]
≤ 10 µM: Fms | B-Raf | Flt1 | Kit

O=C(c1cccc(OC(F)(F)F)c1)c1c[nH]c2ncc(-c3cccnc3)cc12 [Compound P-1413, (5-Pyridin-3-yl-1H-pyrrolo[2,3-b]pyridin-3-yl)-(3-trifluoromethoxy-phenyl)-methanone]
≤ 10 µM: B-Raf V600E | c-Raf-1 | Kit

CCCS(=O)(=O)Nc1cccc(C(=O)c2c[nH]c3ncc(Br)cc23)c1C [Compound P-1608]
≤ 10 µM: Fms | FGFR1 | B-Raf | Flt1 | B-Raf V600E

O=C(c1c(F)ccc(OC(F)F)c1F)c1c[nH]c2ncc(Br)cc12 [Compound P-1526, (5-Bromo-1H-pyrrolo[2,3-b]pyridin-3-yl)-(3-difluoromethoxy-2,6-difluoro-phenyl)-methanone]
not listed: c-Raf-1 | Ret
≤ 10 µM: all other assays above

COC(=O)Nc1ccc(F)c(C(=O)c2c[nH]c3ncccc23)c1F [Compound P-0974, [2,4-Difluoro-3-(1H-pyrrolo[2,3-b]pyridine-3-carbonyl)-phenyl]-carbamic acid methyl ester]
≤ 10 µM: FGFR1 | c-Raf-1

COc1cnc2[nH]cc(C(=O)c3c(F)ccc(NS(=O)(=O)c4cccc(C(F)(F)F)c4)c3F)c2c1 [Compound P-1598, N-[2,4-Difluoro-3-(5-methoxy-1H-pyrrolo[2,3-b]pyridine-3-carbonyl)-phenyl]-3-trifluoromethyl-benzenesulfonamide]
≤ 10 µM: Fms | B-Raf | Flt1 | B-Raf V600E | Kit

CS(=O)(=O)Nc1cccc(-c2cnc3[nH]cc(C(=O)c4cccc(OC(F)F)c4)c3c2)c1 [Compound P-1430, N-{3-[3-(3-Difluoromethoxy-benzoyl)-1H-pyrrolo[2,3-b]pyridin-5-yl]-phenyl}-methanesulfonamide]
not listed: c-Raf-1 | Ret
≤ 10 µM: all other assays above

CCCS(=O)(=O)Nc1ccc(F)c(C(=O)c2c[nH]c3ncc(C(=O)OC)cc23)c1F [Compound P-1552, 3-[2,6-difluoro-3-(propane-1-sulfonylamino)-benzoyl]-1H-pyrrolo[2,3-b]pyridine-5-carboxylic acid methyl ester]
≤ 10 µM: Fms | B-Raf | Flt1 | B-Raf V600E | Kit

COc1cccc(Nc2ccnc3[nH]ccc23)c1 [Compound P-1065]
≤ 10 µM: B-Raf V600E | c-Raf-1
